Reference: paper PMC6030096, “Synergy of Physico-chemical and Biological Experiments for Developing a Cyclooxygenase-2 Inhibitor” (Scientific Reports, 2018)

Columns and labels:
[1] = molecular target: T1, COX-2 (Homo sapiens, UniProt P35354); assay: Human whole blood assay for COX-2 (LPS stimulated PGE2); assay type: cell-based; set-up: endogenous in cells; host or cells: human whole blood, aspirin-pretreated, LPS-stimulated
T1 sequence (P35354 18-604): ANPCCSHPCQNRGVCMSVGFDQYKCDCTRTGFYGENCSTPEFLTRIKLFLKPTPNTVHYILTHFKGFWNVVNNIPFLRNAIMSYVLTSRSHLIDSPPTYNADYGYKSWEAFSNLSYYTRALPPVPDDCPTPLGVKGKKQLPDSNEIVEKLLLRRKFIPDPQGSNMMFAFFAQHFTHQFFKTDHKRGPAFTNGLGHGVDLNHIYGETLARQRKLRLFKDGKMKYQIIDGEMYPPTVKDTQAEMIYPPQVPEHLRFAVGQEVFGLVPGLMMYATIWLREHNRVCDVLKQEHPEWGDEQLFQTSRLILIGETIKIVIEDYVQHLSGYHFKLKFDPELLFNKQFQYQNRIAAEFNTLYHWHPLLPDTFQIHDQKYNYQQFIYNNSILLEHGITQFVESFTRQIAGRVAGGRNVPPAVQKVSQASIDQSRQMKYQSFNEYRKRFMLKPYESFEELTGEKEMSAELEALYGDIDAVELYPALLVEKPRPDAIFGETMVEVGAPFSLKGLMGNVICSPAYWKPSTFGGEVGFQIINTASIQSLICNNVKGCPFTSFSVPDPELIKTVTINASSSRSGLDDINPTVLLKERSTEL
Protocol: (§1) The use of human blood for the whole blood assay was duly approved by the institutional ethical committee of the University for human subjects. Production of prostaglandin PGE2 during lipopolysaccharide (LPS) stimulated whole blood was used to quantify COX-2 inhibitory activity whereas calcium ionophore (A23187) stimulated thromboxane (TxB2) production was used to measure COX-1 inhibitory activity of the compounds.
COX-2 assay was performed by inactivating COX-1 with 50 µL aspirin (10 µg/mL) per 400 µL of blood sample.

[2] = tested on: carrageenan-induced inflammation in rat; assay: Carrageenan induced paw inflammation (pretreatment)
Protocol: In-vivo biological experiments were performed on male wistar rat (250–300 g). […] The animals were given free supply of food and water. The use of animals for the biological studies was duly permitted by the institutional animal ethical committee (IAEC) of the University. […] All the doses were administered intraperitoneally.
The paw thickness of the animals was measured with vernier callipre at 1 h intervals up to the 5th hour and compared with the control.
For anti-inflammatory activity, carageenan induced paw edema model with three groups of animals, 5 in each, were used[22]. All the drugs were administered intraperitoneally.

[3] = molecular target: T2, 5-LOX (Soybean lipoxygenase) (Glycine max, UniProt P08170); assay: Lipoxygenase inhibitory activity assay; assay type: biochemical
T2 construct: purchased Cayman Chemical Co. 760700
T2 sequence (P08170 1-839): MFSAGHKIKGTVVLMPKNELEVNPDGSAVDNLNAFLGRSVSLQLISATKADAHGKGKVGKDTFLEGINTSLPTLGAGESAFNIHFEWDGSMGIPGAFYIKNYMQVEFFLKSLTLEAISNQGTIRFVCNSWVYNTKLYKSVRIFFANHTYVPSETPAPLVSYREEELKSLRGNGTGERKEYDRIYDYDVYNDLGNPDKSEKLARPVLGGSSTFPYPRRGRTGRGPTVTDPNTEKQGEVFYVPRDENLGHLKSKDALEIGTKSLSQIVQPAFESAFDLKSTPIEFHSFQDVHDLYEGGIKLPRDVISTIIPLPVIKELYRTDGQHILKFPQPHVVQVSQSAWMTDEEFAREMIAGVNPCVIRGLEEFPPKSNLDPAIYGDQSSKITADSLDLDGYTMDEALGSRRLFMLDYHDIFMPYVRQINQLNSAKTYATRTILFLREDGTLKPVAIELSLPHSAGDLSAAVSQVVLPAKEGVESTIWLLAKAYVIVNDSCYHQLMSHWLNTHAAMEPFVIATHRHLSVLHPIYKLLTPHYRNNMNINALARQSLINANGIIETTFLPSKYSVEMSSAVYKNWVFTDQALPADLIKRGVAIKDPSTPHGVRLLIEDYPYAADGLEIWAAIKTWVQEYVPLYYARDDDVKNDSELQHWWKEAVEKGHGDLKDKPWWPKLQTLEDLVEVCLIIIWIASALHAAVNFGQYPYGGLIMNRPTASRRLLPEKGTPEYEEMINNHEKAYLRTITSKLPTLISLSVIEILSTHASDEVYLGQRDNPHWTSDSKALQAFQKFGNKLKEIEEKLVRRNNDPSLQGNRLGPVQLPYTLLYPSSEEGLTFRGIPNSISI
Protocol: 10 µL of the compound of each concentration was mixed with 90 µL 5-LOX (Soybean lipoxygenase in assay buffer) in the specified wells of the 96-well plate. Two wells containing assay buffer and AA acted as blanks whereas four wells, each carrying enzyme and AA, were positive controls. 10 µL AA was added to each test well and the plate was shaken for 5 min. Chromogen (100 µL) was added to each well and the plate was again shaken for 5 min. The absorbance of each well at 490 nm was recorded on microplate scanning spectrophotometer. As per the protocol given with the assay kit, the 5-LOX inhibitory activity for each compound at each concentration was determined using the mean of the two values (duplicate experiments) with deviation <5%.

[4] = molecular target: T3, COX-1 (Ovis aries, UniProt P05979); assay: Isothermal titration calorimetry with COX-1; assay type: binding; conditions: ITC
T3 construct: purchased Cayman Chemical Co. 560131
T3 sequence (P05979 25-600): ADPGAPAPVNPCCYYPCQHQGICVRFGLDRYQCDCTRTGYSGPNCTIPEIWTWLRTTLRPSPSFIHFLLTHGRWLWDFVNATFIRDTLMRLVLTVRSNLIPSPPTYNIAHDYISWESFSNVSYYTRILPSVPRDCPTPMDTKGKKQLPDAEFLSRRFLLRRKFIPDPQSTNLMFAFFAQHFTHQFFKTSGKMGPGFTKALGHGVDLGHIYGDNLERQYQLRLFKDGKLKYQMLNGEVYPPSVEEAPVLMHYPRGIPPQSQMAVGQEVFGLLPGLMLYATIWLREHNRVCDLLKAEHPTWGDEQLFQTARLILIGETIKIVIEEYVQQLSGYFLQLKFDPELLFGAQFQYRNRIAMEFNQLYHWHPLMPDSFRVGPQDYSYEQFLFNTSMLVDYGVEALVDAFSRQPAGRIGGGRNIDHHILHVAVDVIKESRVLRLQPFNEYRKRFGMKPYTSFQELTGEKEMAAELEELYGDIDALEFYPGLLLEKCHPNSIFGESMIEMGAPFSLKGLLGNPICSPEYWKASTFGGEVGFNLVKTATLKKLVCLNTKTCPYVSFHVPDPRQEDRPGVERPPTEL
Protocol: 100 µM solution of the compound in HPLC grade DMSO and Tris-HCl buffer (1:9) (pH 7.4) was prepared. 5 µL of enzyme was diluted with 500 µL Tris-HCl buffer. 19 consecutive injections of 2 µL each at 120 s interval were made to the enzyme solution taken in the sample cell. The heat change in the cell was determined. The control titrations for determining the background heat (that was subtracted from the main experiment) were performed by taking buffer solution in the cell and making successive additions of the titrant. The titration heat profiles and the binding parameters were read with Microcal software origin 7.0.

[5] = molecular target: T4, COX-1 (Homo sapiens, UniProt P23219); assay: Human whole blood assay for COX-1 (A23187 stimulated TxB2); assay type: cell-based
T4 construct: endogenous in cells; host or cells: human whole blood (heparinized, venipuncture)
T4 sequence (P23219 24-599): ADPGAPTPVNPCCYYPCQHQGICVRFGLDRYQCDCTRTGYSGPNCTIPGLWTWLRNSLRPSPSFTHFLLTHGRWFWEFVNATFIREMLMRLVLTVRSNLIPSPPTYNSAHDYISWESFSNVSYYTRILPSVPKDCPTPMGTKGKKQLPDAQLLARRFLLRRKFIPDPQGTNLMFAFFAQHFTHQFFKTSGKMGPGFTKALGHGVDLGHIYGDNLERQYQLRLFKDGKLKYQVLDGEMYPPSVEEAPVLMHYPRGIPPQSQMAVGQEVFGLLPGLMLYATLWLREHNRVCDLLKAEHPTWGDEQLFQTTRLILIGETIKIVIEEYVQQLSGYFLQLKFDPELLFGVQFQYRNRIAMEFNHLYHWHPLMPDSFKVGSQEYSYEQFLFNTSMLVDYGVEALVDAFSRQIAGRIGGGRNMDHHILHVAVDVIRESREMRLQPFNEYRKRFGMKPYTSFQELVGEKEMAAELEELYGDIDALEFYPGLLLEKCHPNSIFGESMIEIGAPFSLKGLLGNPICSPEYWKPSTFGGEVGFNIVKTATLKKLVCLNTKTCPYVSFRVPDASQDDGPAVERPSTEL
Source text: as §1
Approval for the use of human blood was taken from the institutional ethical committee of Guru Nanak Dev University Amritsar and informed consent was obtained from the subject[32],[33]. All experiments were performed in accordance with the relevant guidelines and regulations. By venipuncture, the blood sample was collected in heparinized tubes. […] Each sample in duplicate was assayed for TxB2 (the breakdown product of TxA2) using TXB2 Express ELISA kit (Cayman Chemicals, Ann Arbor, MI) by the reported protocol.

[6] = molecular target: T3, COX-1; conditions: previously reported compounds 1 and 2; cited from earlier work
[7] = tested on: acetic acid induced writhings in rat; assay: Acetic acid induced writhing (analgesic activity); conditions: ip
Protocol: In-vivo biological experiments were performed on male wistar rat (250–300 g). […] The animals were given free supply of food and water. […] Acetic acid induced algesia model and carragennan induced inflammatory model were used for these studies. […] All the doses were administered intraperitoneally.
Analgesic activity was studied using acetic acid induced writhing. Animals in 13 groups, each consisting of 5 animals, were used. Intraperitoneal administration of 0.6% acetic acid induced abdominal writhings that were characterized by arching of back, extension of hind limbs and contraction of abdominal musculature[36]. […] All the drugs were administered intraperitoneally.

[8] = tested on: carrageenan induced paw edema; assay: Carrageenan induced paw edema, effect on pre-existing inflammation; assay type: in vivo, rat; conditions: 10 mg kg^−1 ip 60 min after carrageenan
Protocol: Paw thickness (mm) was used as an index of inflammation and measured at 30 min, 1 h, 2 h, 3 h, 4 h, 5 h, 6 h, 8 h, and 24 h after the carrageenan injection.
Paw thickness (mm) was used as index of inflammation and measured at 30 min, 1 h, 2 h, 3 h, 4 h, 5 h, 6 h, 8 h, and 24 h after the carrageenan injection.

Structure (SMILES): O=C1NC(=O)C(=Cc2cn(C[C@H](O)Cn3c4ccccc4c(=O)c4ccccc43)c3ccccc23)C(=O)N1 [(S)-3a]
- effect on LPS stimulated PGE2 production ([1]; 1 µM): inhibited LPS stimulated PGE2 production
- Production of PGE2, +LPS ([1]; final conc 1 µM, LPS 10 µg mL^−1): 0.93 ± 0.1 ng/mL
- reduction of carrageenan induced inflammation ([2]; 10 mg kg^−1): 25%
- effect on paw inflammation compared with indomethacin ([2]; end of 4th and 5th hour): comparable to that of indomethacin
- effect on carageenan induced paw inflammation (paw thickness) ([2]; ip 30 min before carageenan, measured up to 5th hour): Significant decrease
- IC50 [3]: 200 ± 15 nM
- TΔS [4]: -3.47 kJ/mol
- ΔG [4]: -18.01 kJ/mol
- ΔH [4]: -21.48 kJ/mol
- effect on ionophore stimulated TxB2 production ([5]; 1 µM): had no effect
- Production of TXB2, +Ca^2+ Ionophore ([5]; final conc 1 µM, A23187 50 µM): 1.95 ± 0.01 ng/mL

Structure (SMILES): CC1=NN(c2cccc(Cl)c2)C(=O)C1=Cc1cn(CCCOc2cc(O)c3c(=O)cc(-c4ccccc4)oc3c2)c2ccccc12 [Compound 1]
- IC50 [6]: 118 ± 5.5 µM

Structure (SMILES): COc1ccc2c(c1)c(CC(=O)O)c(C)n2C(=O)c1ccc(Cl)cc1 [Indomethacin, reference compound]
- effect on number of acetic acid induced writhing vs control [7]: significantly decreased
- effect on pre-existing paw edema (paw thickness) ([8]; after 5 h of treatment): decrease paw edema
- duration of decrease in paw edema ([8]; after 24 h of treatment): sustained even after 24 h
